The record followed here is patent US20100098788A1, “Extracts of Curcuma and Methods of Use Thereof” (priority 2008, published 2010).

For one assay, the target named is T1, Aβ1-42 aggregation (Homo sapiens, UniProt P05067).
T1 construct: carried out with the synthetic Aβ1-42 peptide incubated with the extracts
The assay is described as follows: Interaction matrices of Extract 1 with extracts and curcuminoids in the Aβ1-42 aggregation assay. The class given is biochemical.

The next assay deals with T2, Aβ1-42 peptide (Homo sapiens, UniProt P05067).
T2 construct: carried out with the synthetic Aβ1-42 peptide incubated with the extracts
T2 sequence (P05067 672-713): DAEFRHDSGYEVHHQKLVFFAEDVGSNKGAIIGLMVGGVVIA
Description: Amyloid aggregation assay (thioflavin T fluorescence). In kind it is biochemical. The conditions noted are these: 0 to 30 μg mL^−1, 120 h, 37° C.

Assay [1] relates to Aβ1-40, 42 peptides secreted from SweAPP N2a cells. The assay is described as follows: Aβ secretion ELISA in conditioned media of SweAPP N2a cells. In kind it is cell-based. The following applies: 3-30 μg/ml, 12 h.
The test system of assay [2] is phosphorylated tau (Ser199/220 and AT8 antibodies) in Tg2576 mice. Description: Western blot of phosphorylated tau in brain homogenates after oral treatment. The class given is in vivo. The conditions noted are these: soluble fraction, oral 0.07% in chow, 6 months. The procedure:
The Tg2576 mice, which are engineered to develop AD within ca. 6 months after birth, were purchased from Taconic (Germantown, N.Y.). For oral administration of extracts, a total of 60 (30 female/30 male) Tg2576 mice with a B6/SJL background were employed. Beginning at 8 months of age, Tg2576 treatment mice were administered optimized turmeric Extract 1 and THC in NIH31 chow (0.07% in NIH31 chow, 167 mg/kg/day) or NIH31 chow alone (Control) for 6 months [n=20 (10 female/10 male)]. All mice were sacrificed at 14 months of age for analyses of Aβ levels and Aβ load in the brain according to previously described methods (J. Tan, T. Town, F. Crawford, T. Mori, A. DelleDonne, R. Crescentini, D. Obregon, R. A. Flavell and M. J. Mullan, 2002. Role of CD40 ligand in amyloidosis in transgenic Alzheimer's mice, Nat. Neurosci. 5:1288-1293). […]
Brain homogenates were obtained as previously described above. […] Densitometric analysis was done as previously described using a FluorS Multiimager with Quantity One™ software (BioRad, Hercules, Calif.) (K. Rezai-Zadeh, D. Shytle, N. Sun, T. Mori, H. Hou, D. Jeanniton, J. Ehrhart, K. Townsend, J. Zeng, D. Morgan, J. Hardy, T. Town and J. Tan, 2005. Green tea epigallocatechin-3-gallate (EGCG) modulates amyloid precursor protein cleavage and reduces cerebral amyloidosis in Alzheimer transgenic mice, J. Neurosci. 25:8807-8814).

Assay [3] deals with IL-4 and IL-2 in splenocytes of Tg2576 mice. Description: Cytokine ELISA of anti-CD3 stimulated primary splenocyte cultures from treated mice. The following applies: splenocytes stimulated 24 h with anti-CD3 antibody. The class given is in vivo. The procedure:
FIG. 9 depicts the IL-4 to IL-2 cytokine profile of Extract 1- and THC-treated Tg2576 mice. Following sacrifice, primary cultures of splenocytes were established from the mice and stimulated for 24 hours with anti-CD3 antibody.
The Tg2576 mice, which are engineered to develop AD within ca. 6 months after birth, were purchased from Taconic (Germantown, N.Y.). For oral administration of extracts, a total of 60 (30 female/30 male) Tg2576 mice with a B6/SJL background were employed. […]
As described in the previous studies (J. Tan, T. Town, D. Paris, T. Mori, Z. Suo, F. Crawford, M. P. Mattson, R. A. Flavell and M. Mullan, 1999. Microglial activation resulting from CD40-CD40L interaction after beta-amyloid stimulation, Science. 286:2352-2355; J. Tan, T. Town, M. Saxe, D. Paris, Y. Wu and M. Mullan, 1999. Ligation of microglial CD40 results in p44/42 mitogen-activated protein kinase-dependent TNF-alpha production that is opposed by TGF-beta 1 and IL-10, J. Immunol. 163:6614-6621) cell cultured media were collected for measurement of cytokines by commercial cytokine ELISA kits. […] Cytokines were quantified using commercially available ELISAs (BioSource International, Inc., Camarillo, Calif.) that allow for detection of IL-2 and IL-4. […]

Like-named read-outs stand apart in the source and are kept apart here.

T1 sequence (P05067 672-713): as above

Turning to `COc1cc(/C=C/C(=O)CC(=O)/C=C/c2ccc(O)c(OC)c2)ccc1O` [Curcumin, curcumin], on Aβ1-42 aggregation (interaction with Extract 1 (synergistic, antagonistic or additive)), the Effect result is given as “Additive”. Besides, the “inhibition of Aβ1-42 aggregation” value against Aβ1-42 peptide is reported as “effective”.
On to `COc1cc(/C=C/C(O)=C/C(=O)/C=C/c2ccc(O)cc2)ccc1O` [DMC, demethoxycurcumin], for which the IC50 on Aβ1-42 aggregation (extract or standard alone, Aβ1-42 aggregation, read-out: IC50 Individual (converted)) was 1700 µM. In addition, the “inhibition of Aβ generation” value in assay [1] is on record as “ca. 10%”.
As for `COc1cc(CCC(=O)CC(=O)CCc2ccc(O)c(OC)c2)ccc1O` [THC, tetrahydrocurcumin], at Aβ1-42 aggregation, the IC50 was 95.3 µM. Further, in assay [2], the “reduction of tau hyper-phosphorylation compared to control” value is on record as “ca. 40%”. Besides, the “ratio of IL-4 to IL-2 cytokine levels” value in assay [3] is given as 0.8.
